Data as given in paper PMC6385203, “Mutations in the palm domain disrupt modulation of acid-sensing ion channel 1a currents by neuropeptides” (Scientific Reports, 2019).
Peptide text beside a SMILES is read from it.

Biological target: T1, WT ASIC1a (Homo sapiens, UniProt P78348)
T1 construct: expressed in transfected cells; host or cells: Xenopus laevis oocytes injected with cRNA
T1 sequence (P78348 1-528): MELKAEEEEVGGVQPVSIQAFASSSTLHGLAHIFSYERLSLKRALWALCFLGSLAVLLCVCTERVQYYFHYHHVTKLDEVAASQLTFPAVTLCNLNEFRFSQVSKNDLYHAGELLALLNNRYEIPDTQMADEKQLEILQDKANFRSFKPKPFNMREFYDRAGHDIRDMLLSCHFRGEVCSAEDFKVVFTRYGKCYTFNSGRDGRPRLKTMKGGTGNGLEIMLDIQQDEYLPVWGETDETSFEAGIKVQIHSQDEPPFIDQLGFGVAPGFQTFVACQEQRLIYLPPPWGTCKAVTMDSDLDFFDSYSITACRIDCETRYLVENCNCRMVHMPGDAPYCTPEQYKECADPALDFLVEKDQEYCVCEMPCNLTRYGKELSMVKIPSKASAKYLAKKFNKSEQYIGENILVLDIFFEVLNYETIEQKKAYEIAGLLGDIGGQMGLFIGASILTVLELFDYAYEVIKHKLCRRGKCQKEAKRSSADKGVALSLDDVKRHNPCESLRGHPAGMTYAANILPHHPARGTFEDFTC
Assay: Time course of appearance of Isust (association), WT
Format: cell-based
Details: pH 7.4, 50 μM FRRFa pre-applied for different times at pH7.4, n = 4, mean ± SEM, read-out: association rate constant kon
Protocol: ASIC1a function was measured by two-electrode voltage-clamp after recombinant expression in Xenopus oocytes. The channels were activated by a pH5 stimulation solution from a conditioning solution of pH7.4. […] We measured the rate of FRRFa unbinding, as the disappearance of the sustained current after a 50-s incubation with 50 μM FRRFa, as 0.025 ± 0.005 s^−1 (n = 8, Fig. 2b). […] To determine the kinetics of FRRFa association on ASIC1a, we pre-applied the peptide at a concentration of 50 μM for different time periods in the conditioning solution and measured the sustained current fraction.
Figure 2 FRRFa modulation of ASIC1a currents is only partially affected by acidic pocket mutations. (a) FRRFa concentration-response curve. Top, representative current traces. Bottom, Isust/Ipeak ratio induced by pH5 as a function of the FRRFa concentration (pre-applied during 45–50 s and present in pH5 solution), n = 7–11. (b) Time course of disappearance of the FRRFa-induced Isust. FRRFa at 50 μM was applied for 45 s, and current was measured once every minute during washout with FRRFa-free solution. Exponential fit shown as solid line (n = 4, error bars are smaller than the symbols). (c) Time course of appearance of Isust. Oocytes were exposed for various durations to 50 μM FRRFa in the pH7.4 conditioning solution, before activation of ASIC currents with pH5, including 50 μM FRRFa. […]

N=C(N)NCCC[C@H](NC(=O)[C@H](CCCNC(=N)N)NC(=O)[C@@H](N)Cc1ccccc1)C(=O)N[C@@H](Cc1ccccc1)C(N)=O [FRRFa, Phe-Arg-Arg-Phe-amide] (H-FRRF-NH2)
kon: 162 ± 84 M⁻¹ s⁻¹
